Assay results: patent US6916801B2, “7-Alkylidene-3-substituted-3-cephem-4-carboxylates as β-lactamase inhibitors” (Alamx, LLC, priority 2001, dated 2005)
Read-outs that look alike come from different tables or passages of the source.

Columns and labels:
[1] = target: Class C β-lactamase of Enterobacter cloacae P-99, a cephalosporinase (Enterobacter cloacae, UniProt P05364); test: biochemical
Procedure: (§1) Representative compounds of formula (I) were evaluated as inhibitors of the Class C β-lactamase of Enterobacter cloacae P-99, a cephalosporinase, and TEM-1, a Class A penicillinase, by relative IC50 analysis. The IC50 value represents the concentration of inhibitor required to effect a 50% loss of activity of free enzyme. The IC50 value of each compound was determined as follows. Following a 10 minute incubation of a dilute solution of enzyme (2.56 nM) and inhibitor (<0.64 mM), a […] of this incubation mixture was then further diluted into 1 mL nitrocefin solution, and the rate of hydrolysis was measured during a 1 minute period by monitoring the absorbance of nitrocefin as a function of time.

[2] = target: TEM-1, a Class A penicillinase (Escherichia coli, UniProt P62593); test: beta-lactamase inhibition, relative IC50 analysis by nitrocefin hydrolysis (class A enzyme); format: biochemical; conditions: class A β-lactamase; 10 minute incubation of enzyme (2.56 nM) and inhibitor; nitrocefin substrate
TEM-1, a Class A penicillinase, sequence (P62593 24-286 limits assumed): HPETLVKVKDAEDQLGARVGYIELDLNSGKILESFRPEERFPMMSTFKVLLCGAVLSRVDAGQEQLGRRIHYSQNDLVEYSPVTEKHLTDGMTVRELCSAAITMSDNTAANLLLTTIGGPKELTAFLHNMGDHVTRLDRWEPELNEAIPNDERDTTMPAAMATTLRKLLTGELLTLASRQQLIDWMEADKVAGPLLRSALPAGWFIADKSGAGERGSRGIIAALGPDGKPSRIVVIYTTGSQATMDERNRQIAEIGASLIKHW
Procedure: as §1

[3] = class C β-lactamase, 10 minute incubation of enzyme (2.56 nM) and inhibitor, nitrocefin substrate, read-out: P99 (IC50, μm)

Class C β-lactamase of Enterobacter cloacae P-99, a cephalosporinase, sequence (P05364 21-381): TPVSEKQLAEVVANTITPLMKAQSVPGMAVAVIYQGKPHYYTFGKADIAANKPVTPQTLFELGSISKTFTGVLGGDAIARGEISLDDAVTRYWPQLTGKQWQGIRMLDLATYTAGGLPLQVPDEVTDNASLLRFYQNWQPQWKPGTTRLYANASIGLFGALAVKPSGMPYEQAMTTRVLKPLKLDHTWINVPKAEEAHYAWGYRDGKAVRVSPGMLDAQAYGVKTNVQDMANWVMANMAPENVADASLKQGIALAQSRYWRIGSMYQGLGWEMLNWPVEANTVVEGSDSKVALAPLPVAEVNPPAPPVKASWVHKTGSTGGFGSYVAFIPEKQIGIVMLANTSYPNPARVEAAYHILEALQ

| Structure (SMILES) | IC50 [1, 3] [nM] | IC50 [2] [nM] | IC50 [1] [nM] |
| --- | --- | --- | --- |
| NCCCNC(=O)C=CC1=C(C(=O)O)N2C(=O)C(=Cc3ccccn3)C2S(=O)(=O)C1 (centres unmarked) [Compound 21b, Sodium 3-{[N-(3″-aminopropyl)-2′-carbamoyl]vinyl)}-1,1-dioxo-7-(2′″-pyridylmethylidine-3-cephem-4-carboxylate] | 4200 | 1590 |  |
| CN1CCN(C(=O)C=CC2=C(C(=O)O)N3C(=O)C(=Cc4ccccn4)C3S(=O)(=O)C2)CC1 (centres unmarked) [Compound 21c, Sodium 3-[3 ′-(4″-methylpiperazin-1″-yl)-3′-oxopropenyl]-1,1-dioxo-7-(2′″-puridylmethylidine)-3-cephem-4-carboxylate] |  | 53 | 6340 |
| O=C(O)C1=C(c2cccs2)CS(=O)(=O)C2C(=Cc3ccccn3)C(=O)N12 (centres unmarked) [Compound 9c, Sodium 1,1-dioxo-7-(2′-pyridylmethylidine)-3-(thiophen-2′-yl)-3-cephem-4-carboxylate] |  | 3540 | 43 |
| O=C(O)C1=CCS(=O)(=O)C2C(=Cc3ccccn3)C(=O)N12 (centres unmarked) [Compound 14b, Sodium 1,1-dioxo-7-(2 ′-pyridylmethylidine)-3-cephem-4-carboxylate] |  | 18500 | 116 |
| O=C(O)C1=C(Cl)CS(=O)(=O)C2C(=Cc3ccccn3)C(=O)N12 (centres unmarked) [Compound 7a, Sodium 3-chloro-1,1-dioxo-7-(2′-pyridylmethylidine)-3-cephem-4-carboxylate] | 3 | 1820 |  |
| O=C(C=CC1=C(C(=O)O)N2C(=O)C(=Cc3ccccn3)C2S(=O)(=O)C1)NO (centres unmarked) [Compound 18b, Sodium 3-(N-hydroxy-2′-carbamoylvinyl)-1,1-dioxo-7-(2″-pyridylmethylidine)-3-cephem-4-carboxylate] |  | 7690 | 128 |
| O=C(O)C1=C(I)CS(=O)(=O)C2C(=Cc3ccccn3)C(=O)N12 (centres unmarked) [Compound 7c, Sodium 1,1-dioxo-3-iodo-7-(2′-pyridylmethylidine)-3-cephem-4-carboxylate] |  | 1280 | 4.7 |
| NNC(=O)C=CC1=C(C(=O)O)N2C(=O)C(=Cc3ccccn3)C2S(=O)(=O)C1 (centres unmarked) [Compound 21a] | 1100 | 390 |  |
| O=C(C=CC1=C(C(=O)O)N2C(=O)C(=Cc3ccccn3)C2S(=O)(=O)C1)NC1CC1 (centres unmarked) [Compound 18a] | 824 | 240 |  |
| CS(=O)(=O)C1=C(C(=O)O)N2C(=O)C(=Cc3ccccn3)C2S(=O)(=O)C1 (centres unmarked) [Compound 11a, Sodium 1,1-dioxo-3-methylsulfonyl-7-(2′-pyridylmethylidine)-3-cephem-4-carboxylate] |  | 7.6 | 90.7 |
| CSC1=C(C(=O)O)N2C(=O)C(=Cc3ccccn3)C2S(=O)(=O)C1 (centres unmarked) [Compound 9a, Sodium 1,1-dioxo-3-methylsulfanyl-7-(2′-pyridylmethylidine)-3-cephem-4-carboxylate] |  | 1060 | 59 |
| O=C(O)C1=C(S(=O)(=O)c2ccccc2)CS(=O)(=O)C2C(=Cc3ccccn3)C(=O)N12 (centres unmarked) [Compound 11b, Sodium 1,1-dioxo-3-phenylsulfonyl-7-(2′-pyridylmethylidine)-3-cephem-4-carboxylate] |  | 9.4 | 174 |
| O=C(O)C1=C(Br)CS(=O)(=O)C2C(=Cc3ccccn3)C(=O)N12 (centres unmarked) [Compound 7b, Sodium 3-bromo-1,1-dioxo-7-(2′-pyridylmethylidine)-3-cephem-4-carboxylate] |  | 791 | 2.9 |
| O=C(O)C1=C(F)CS(=O)(=O)C2C(=Cc3ccccn3)C(=O)N12 (centres unmarked) [Compound 14a, Sodium 1,1-dioxo-3-fluoro-7-(2′-pyridylmethylidine)-3-cephem-4-carboxylate] | 11 | 1840 |  |
| O=C(O)C1=C(c2ccccc2)CS(=O)(=O)C2C(=Cc3ccccn3)C(=O)N12 (centres unmarked) [Compound 9d, Sodium 1,1-dioxo-3-phenyl-7-(2′-pyridylmethylidine)-3-cephem-4-carboxylate] | 38 | 9140 |  |
| O=C(O)C1=C(Sc2ccccc2)CS(=O)(=O)C2C(=Cc3ccccn3)C(=O)N12 (centres unmarked) [Compound 9b, Sodium 1,1-dioxo-3-phenylsulfanyl-7-(2′-pyridylmethylidine)-3-cephem-4-carboxylate] | 21.7 | 12 |  |
